Measurements taken from US10179794B2, “Thieno[3,2-d]pyrimidine, furo[3,2-d]pyrimidine, and pyrrolo[3,2-D]pyrimidines useful for treating respiratory syncitial virus infections” (Gilead Sciences, Inc., priority 2014, dated 2019).
Read-outs that look alike come from different tables or passages of the source.

What was measured:
RSV strain A2 = experiment: Anti-RSV activity, infectious cytopathic cell protection assay in HEp-2 cells; assay type: cell-based, Respiratory Syncytial Virus (RSV)
Procedure: Antiviral activity against RSV is determined using an infectious cytopathic cell protection assay in HEp-2 cells. In this assay, compounds inhibiting viral infection and/or replication produce a cytoprotective effect against the virus-induced cell killing that can be quantified using a cell viability reagent. The techniques used here are novel adaptations of methods described in published literature (Chapman et al., Antimicrob Agents Chemother. 2007, 51 (9):3346-53.)
HEp-2 cells are obtained from ATCC (Manassas, Va.) and maintained in MEM media supplemented with 10% fetal bovine serum and penicillin/streptomycin. Cells are passaged twice a week and kept at subconfluent stage. Commercial stock of RSV strain A2 (Advanced Biotechnologies, Columbia, Md.) is titered before compound testing to determine the appropriate dilution of the virus stock that generates desirable cytopathic effect in HEp-2 cells.
For antiviral tests, HEp-2 cells are grown in large cell culture flasks to near confluency but not fully so. The compounds to be tested are prediluted in DMSO in 384-well compound dilution plates, either in an 8 or 40 sample per plate standardized dose response format. 3-fold serial dilution increments of each test compound are prepared in the plates and test samples are transferred via acoustic transfer apparatus (Echo, Labcyte) at 100 nl per well into cell culture assay 384-well plates. Each compound dilution is transferred in single or quadruplicate samples into dry assay plates, which are stored until assay is ready to go. The positive and negative controls are laid out in opposite on ends of the plate in vertical blocks (1 column).
Subsequently, an infectious mixture is prepared using an appropriate dilution of virus stock previously determined by titration with cells at a density of 50,000/ml and 20 uL/well is added to test plates w/compounds via automation (uFlow, Biotek). Each plate includes negative and positive controls (16 replicates each) to create 0% and 100% virus inhibition standards, respectively. Following the infection with RSV, testing plates are incubated for 4 days in a 37° C. cell culture incubator. After the incubation, a cell viability reagent, Cell TiterGlo (Promega, Madison, Wis.) is added to the assay plates, which are incubated briefly, and a luminescent readout is measured (Envision, Perkin Elmer) in all the assay plates. The RSV-induced cytopathic effect, percentage inhibition, is determined from the levels of remaining cell viability. These numbers are calculated for each tested concentration relative to the 0% and 100% inhibition controls, and the EC50 value for each compound is determined by non-linear regression as a concentration inhibiting the RSV-induced cytopathic effect by 50%. Various potent anti-RSV tool compounds are used as positive controls for antiviral activity.

[1] = Cytotoxicity assay in HEp-2 cells; assay type: cell-based; conditions: human, uninfected HEp-2 cells, CellTiter Glo
Procedure: (§1) Cytotoxicity of tested compounds is determined in uninfected HEp-2 cells in parallel with the antiviral activity using the cell viability reagent in a similar fashion as described before for other cell types (Cihlar et al., Antimicrob Agents Chemother. 2008,52(2):655-65.). The same protocol as for the determination of antiviral activity is used for the measurement of compound cytotoxicity except that the cells are not infected with RSV. Instead, an uninfected cell mixture at the same density is added at 20 ul/well to plates containing prediluted compounds, also at 100 nl/sample. Assay plates are then incubated for 4 days followed by a cell viability test using the same CellTiter Glo reagent addition and measurement of luminescent readouts. Untreated cell and cells treated at 2 uM puromycin (Sigma, St. Louis, Mo.) serve as 100% and 0% cell viability control, respectively. The percent of cell viability is calculated for each tested compound concentration relative to the 0% and 100% controls and the CC50 value is determined by non-linear regression as a compound concentration reducing the cell viability by 50%.

[2] = Cytotoxicity assay in MT-4 cells; assay type: cell-based; conditions: human, Cell-Titer Glo
Procedure: (§2) The MT-4 cell line was obtained from the NIH AIDS Research and Reference Reagent Program (Germantown, Md.) and cultured in RPMI-1640 medium (Irvine Scientific, Santa Ana, Calif., Cat #9160) supplemented with 10% FBS, 100 units/mL penicillin, 100 units/mL streptomycin, and 2 mM L-Glutamine. The MT-4 cells were passaged twice per week to maintain cell densities below 0.6×10^6 cells/mL. Complete RPMI-1640 media containing 100× concentrations of 3-fold serially diluted compound, ranging from 26 nM to 530 μM, were stamped in quadruplicate into black 384-well plates. After compound addition, 2×10^3 MT-4 cells were added to each well using a MicroFlo liquid dispenser (BioTek, Winooski, Vt.) and the cells were cultured for 5 days at 37° C. in a 5% CO2 incubator. Following the incubation the cells were allowed to equilibrate to 25° C. and cell viability was determined by adding 25 μL of Cell-Titer Glo viability reagent. The mixture was incubated for 10 minutes at 25° C., and the luminescence signal was quantified on a Victor Luminescence plate reader. The CC50 value is defined as the concentration of compound that reduces cell viability by 50% as determined by the Cell-Titer Glo signal. The data were analyzed using Pipeline Pilot Plate Data Analytics Collection software (Version 7.0, Accelrys, San Diego, Calif.). CC50 values were calculated from a non-linear regression analysis using a 4-parameter sigmoidal dose-response equation: Y=Bottom+(Top-Bottom)/(1+10^[(LogCC50-X)*HillSlope]) where the Top and Bottom were fixed at 100% and 0% cell viability, respectively. CC50 values were calculated as the average± standard deviation of 3 independent experiments.

[3] = molecular target: T1, RSV ribonucleoprotein (RNP) complexes (Human respiratory syncytial virus A, UniProt P28887); experiment: RSV RNP assay (inhibition of RSV RNP transcription); assay type: biochemical, RSV A2; conditions: crude RSV RNP complexes, 90 minute incubation at 30° C., total radiolabled transcripts reduced by 50%
T1 construct: The supernatant (S3) fraction, containing the enriched RSV RNP complexes, was collected; endogenous in cells; host or cells: HEp-2 cells infected with RSV A2; detergent-extracted S3 fraction (crude RNP)
Procedure: RSV ribonucleoprotein (RNP) complexes were prepared from a method modified from Mason et al (1). HEp-2 cells were plated at a density of 7.1×10^4 cells/cm^2 in MEM+10% fetal bovine serum (FBS) and allowed to attach overnight at 37° C. (5% CO2). Following attachment, the cells were infected with RSV A2 (MOI=5) in 35 mL MEM+2% FBS. At 20 hours post-infection, the media was replaced with MEM+2% FBS supplemented with 2 m/mL actinomycin D and returned to 37° C. for one hour. The cells were then washed once with PBS and treated with 35 mL of PBS+250 m/mL lyso-lecithin for one minute, after which all liquid was aspirated. The cells were harvested by scrapping them into 1.2 mL of buffer A [50 mM TRIS acetate (pH 8.0), 100 mM potassium acetate, 1 mM DTT and 2 m/mL actinomycin D] and lysed by repeated passage through an 18 gauge needle (10 times). The cell lysate was placed in ice for 10 minutes and then centrifuged at 2400 g for 10 minutes at 4° C. The supernatant (S1) was removed and the pellet (P1) was disrupted in 600 uL of Buffer B [10 mM TRIS acetate (pH 8.0), 10 mM potassium acetate and 1.5 mM MgCl2] supplemented with 1% Triton X-100 by repeated passage through an 18 gauge needle (10 times). The resuspended pellet was placed in ice for 10 minutes and then centrifuged at 2400 g for 10 minutes at 4° C. The supernatant (S2) was removed and the pellet (P2) was disrupted in 600 uL of Buffer B supplemented with 0.5% deoxycholate and 0.1% Tween 40. The resuspended pellet was placed in ice for 10 minutes and then centrifuged at 2400 g for 10 minutes at 4° C. The supernatant (S3) fraction, containing the enriched RSV RNP complexes, was collected and the protein concentration determined by UV absorbance at 280 nm. Aliquoted RSV RNP S3 fractions were stored at −80° C.
Transcription reactions contained 25 μg of crude RSV RNP complexes in 30 μL of reaction buffer [50 mM TRIS-acetate (pH 8.0), 120 mM potassium acetate, 5% glycerol, 4.5 mM MgCl2, 3 mM DTT, 2 mM ethyleneglycol-bis(2-aminoethylether)-tetraacetic acid (EGTA), 50 μg/mL BSA, 2.5 U RNasin (Promega), ATP, GTP, UTP, CTP and 1.5 uCi [α-^32P] NTP (3000 Ci/mmol)]. The radiolabled nucleotide used in the transcription assay was selected to match the nucleotide analog being evaluated for inhibition of RSV RNP transcription. Cold, competitive NTP was added at a final concentration of one-half its Km (ATP=20 μM, GTP=12.5 μM, UTP=6 μM and CTP=2 μM). The three remaining nucleotides were added at a final concentration of 100 μM.
To determine whether nucleotide analogs inhibited RSV RNP transcription, compounds were added using a 6 step serial dilution in 5-fold increments. Following a 90 minute incubation at 30° C., the RNP reactions were stopped with 350 μL of Qiagen RLT lysis buffer and the RNA was purified using a Qiagen RNeasy 96 kit. […]

HEp-2 cells = experiment: Cytotoxicity assay in HEp-2 cells; assay type: cell-based; conditions: uninfected HEp-2 cells, 4 days, CellTiter Glo
Procedure: as §1

MT-4 cells = experiment: Cytotoxicity assay in MT-4 cells; assay type: cell-based; conditions: 5 days, Cell-Titer Glo
Procedure: as §2

[4] = human respiratory syncytial virus, 96 h, RSV A2-induced cytopathic effect in HEp-2 cells, 4 days, Cell TiterGlo, read-out: EC50

T1 sequence (P28887 whole entry): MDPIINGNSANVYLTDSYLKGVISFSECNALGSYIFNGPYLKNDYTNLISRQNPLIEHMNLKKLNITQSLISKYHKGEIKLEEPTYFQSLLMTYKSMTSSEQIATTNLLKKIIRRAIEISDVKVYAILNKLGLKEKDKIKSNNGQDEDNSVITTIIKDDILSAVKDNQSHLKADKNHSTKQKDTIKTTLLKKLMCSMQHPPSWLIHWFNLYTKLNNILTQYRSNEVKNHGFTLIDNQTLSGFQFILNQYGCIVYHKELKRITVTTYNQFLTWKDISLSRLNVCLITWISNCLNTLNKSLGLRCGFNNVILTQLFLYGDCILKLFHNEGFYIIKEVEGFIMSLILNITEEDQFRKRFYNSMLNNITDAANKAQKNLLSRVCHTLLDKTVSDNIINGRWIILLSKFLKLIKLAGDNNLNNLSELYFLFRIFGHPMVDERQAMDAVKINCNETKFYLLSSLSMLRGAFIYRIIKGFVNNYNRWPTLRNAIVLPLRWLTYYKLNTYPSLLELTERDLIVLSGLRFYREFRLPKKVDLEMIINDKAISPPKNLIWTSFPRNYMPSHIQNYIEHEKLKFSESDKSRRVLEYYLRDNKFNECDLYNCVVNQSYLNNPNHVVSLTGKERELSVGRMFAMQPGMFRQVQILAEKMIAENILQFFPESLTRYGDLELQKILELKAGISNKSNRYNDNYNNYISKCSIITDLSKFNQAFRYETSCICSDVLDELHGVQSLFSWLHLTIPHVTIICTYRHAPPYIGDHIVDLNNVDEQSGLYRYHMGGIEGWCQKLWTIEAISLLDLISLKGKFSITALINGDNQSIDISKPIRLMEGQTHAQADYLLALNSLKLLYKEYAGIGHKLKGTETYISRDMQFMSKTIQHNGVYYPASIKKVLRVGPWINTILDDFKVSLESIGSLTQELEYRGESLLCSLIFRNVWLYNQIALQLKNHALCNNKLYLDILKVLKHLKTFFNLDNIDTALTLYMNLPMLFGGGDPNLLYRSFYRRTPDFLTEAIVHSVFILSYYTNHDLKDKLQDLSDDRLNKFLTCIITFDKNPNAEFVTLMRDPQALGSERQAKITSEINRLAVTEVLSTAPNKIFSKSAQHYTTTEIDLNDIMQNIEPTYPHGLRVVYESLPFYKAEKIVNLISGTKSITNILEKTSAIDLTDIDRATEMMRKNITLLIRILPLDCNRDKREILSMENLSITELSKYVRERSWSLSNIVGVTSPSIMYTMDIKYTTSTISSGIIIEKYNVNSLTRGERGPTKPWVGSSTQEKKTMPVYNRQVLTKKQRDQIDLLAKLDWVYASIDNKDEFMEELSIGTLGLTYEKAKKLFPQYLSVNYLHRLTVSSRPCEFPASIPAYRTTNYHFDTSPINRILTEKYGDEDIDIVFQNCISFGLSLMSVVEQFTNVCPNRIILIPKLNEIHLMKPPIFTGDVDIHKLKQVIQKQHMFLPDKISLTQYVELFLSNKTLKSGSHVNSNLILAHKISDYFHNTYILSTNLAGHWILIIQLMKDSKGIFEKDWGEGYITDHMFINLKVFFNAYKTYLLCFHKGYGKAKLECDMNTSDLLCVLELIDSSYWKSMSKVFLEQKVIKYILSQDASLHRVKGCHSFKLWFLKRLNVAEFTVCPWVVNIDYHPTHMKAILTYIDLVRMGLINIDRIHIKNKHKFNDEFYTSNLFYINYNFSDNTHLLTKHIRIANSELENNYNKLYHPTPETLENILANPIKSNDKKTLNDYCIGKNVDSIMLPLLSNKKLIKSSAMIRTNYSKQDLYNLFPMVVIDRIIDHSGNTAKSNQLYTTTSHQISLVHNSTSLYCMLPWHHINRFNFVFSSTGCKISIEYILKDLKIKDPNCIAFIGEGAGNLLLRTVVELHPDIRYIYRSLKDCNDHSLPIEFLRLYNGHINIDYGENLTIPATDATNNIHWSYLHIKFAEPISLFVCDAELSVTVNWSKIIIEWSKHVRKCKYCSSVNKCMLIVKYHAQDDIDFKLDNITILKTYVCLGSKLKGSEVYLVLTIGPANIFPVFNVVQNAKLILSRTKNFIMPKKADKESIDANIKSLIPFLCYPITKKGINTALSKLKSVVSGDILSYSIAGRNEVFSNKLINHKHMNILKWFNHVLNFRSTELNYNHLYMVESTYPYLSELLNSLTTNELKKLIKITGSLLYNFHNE
T1 sequence (P03421 whole entry, further chain): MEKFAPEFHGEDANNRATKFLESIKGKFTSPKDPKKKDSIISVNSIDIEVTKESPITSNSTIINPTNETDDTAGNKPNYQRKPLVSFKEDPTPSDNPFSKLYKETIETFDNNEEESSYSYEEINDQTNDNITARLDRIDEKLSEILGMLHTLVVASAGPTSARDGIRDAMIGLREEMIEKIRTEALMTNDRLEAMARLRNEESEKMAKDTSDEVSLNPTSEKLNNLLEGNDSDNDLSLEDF

EC50 (RSV strain A2; [4]) | SMILES | CC50 at 4 days [1] | CC50 at 5 days [2] | IC50 [3] | also measured
> 98 µM | [N-]=[N+]=N[C@]1(CO)O[C@@H](c2csc3c(N)ncnc23)[C@H](Cl)[C@@H]1O [Example 4, (2R,3R,4R,5S)-5-(4-Aminothieno[3,2-d]pyrimidin-7-yl)-2-azido-4-chloro-2-(hydroxymethyl)tetrahydrofuran-3-ol] | > 93 µM | 93 µM | – | –
– | [N-]=[N+]=N[C@]1(COP(=O)(O)OP(=O)(O)OP(=O)(O)O)O[C@@H](c2csc3c(N)ncnc23)[C@H](F)[C@@H]1O [Example TP1, ((2R,3R,4R,5S)-5-(4-aminothieno[3,2-d]pyrimidin-7-yl)-2-azido-4-fluoro-3-hydroxytetrahydrofuran-2-yl)methyl tetrahydrogen triphosphate] | – | – | 0.076 µM | –
– | [N-]=[N+]=N[C@]1(COP(=O)(O)OP(=O)(O)OP(=O)(O)O)O[C@@H](c2csc3c(N)ncnc23)[C@H](Cl)[C@@H]1O [Example TP4, ((2R,3R,4R,5S)-5-(4-aminothieno[3,2-d]pyrimidin-7-yl)-2-azido-4-chloro-3-hydroxytetrahydrofuran-2-yl)methyl tetrahydrogen triphosphate] | – | – | 0.2 µM | –
0.208 µM | [N-]=[N+]=N[C@]1(CO)O[C@@H](c2csc3c(N)ncnc23)[C@H](F)[C@@H]1O [Example 1, (2R,3R,4R,5S)-5-(4-aminothieno[3,2-d]pyrimidin-7-yl)-2-azido-4-fluoro-2-(hydroxymethyl)-tetrahydrofuran-3-ol] | > 100 µM | 59 µM | – | –
5 µM | N#C[C@]1(CO)O[C@@H](c2csc3c(N)ncnc23)[C@H](O)[C@@H]1O [Example 3, (2R,3S,4R,5S)-5-(4-aminothieno[3,2-d]pyrimidin-7-yl)-3,4-dihydroxy-2-(hydroxymelthyl)tetrahydrofuran-2-carbonitrile] | > 50 µM | > 57 µM | – | –
– | N#C[C@]1(COP(=O)(O)OP(=O)(O)OP(=O)(O)O)O[C@@H](c2csc3c(N)ncnc23)[C@H](F)[C@@H]1O [Example TP2, ((2R,3R,4R,5S)-5-(4-aminothieno[3,2-d]pyrimidin-7-yl)-2-cyano-4-fluoro-3-hydroxytetrahydrofuran-2-yl)methyl tetrahydrogen triphosphate] | – | – | 0.042 µM | –
– | CCOC(=O)[C@H](C)NP(=O)(OC[C@@]1(N=[N+]=[N-])O[C@@H](c2csc3c(N)ncnc23)[C@H](F)[C@@H]1O)Oc1ccccc1 (stereo partly drawn) [Example PD1, (2S)-ethyl 2-(((((2R,3R,4R,5S)-5-(4-aminothieno[3,2-d]pyrimidin-7-yl)-2-azido-4-fluoro-3-hydroxytetrahydrofuran-2-yl)methoxy)(phenoxy)phosphoryl)amino)propanoate] | > 50 µM | 10.4 µM | – | EC50 (RSV strain A2; human respiratory syncytial virus, HEp-2, 96 h): 0.556 µM
– | N#C[C@]1(COP(=O)(O)OP(=O)(O)OP(=O)(O)O)O[C@@H](c2csc3c(N)ncnc23)[C@H](O)[C@@H]1O [Example TP3, ((2R,3S,4R,5S)-5-(4-aminothieno[3,2-d]pyrimidin-7-yl)-2-cyano-3,4-dihydroxytetrahydrofuran-2-yl)methyl tetrahydrogen triphosphate] | – | – | 0.036 µM | –
– | N#C[C@]1(CO)O[C@@H](c2csc3c(N)ncnc23)[C@H](F)[C@@H]1O [Example 2, (2R,3R,4R,5S)-5-(4-aminothieno[3,2-D]pyrimidin-7-yl)-4-fluoro-3-hydroxy-2-(hydroxymelthyl)tetrahydrofuran-2-carbonitrile] | – | – | – | EC50 (RSV strain A2; RSV A2-induced cytopathic effect in HEp-2 cells, 4 days, Cell TiterGlo, read-out: EC50): 6.5 µM; CC50 (HEp-2 cells): > 100 µM; CC50 (MT-4 cells): > 114 µM
